{"source": "patent EP0533724B1", "about": "“CALCIUM CITRATE MALATE COMPOSITION” (THE PROCTER & GAMBLE COMPANY, priority 1990, dated 1991)", "experiment": "physchem", "conditions": "water", "text": "The exact method for determining this is described hereinafter.", "data": [{"smiles": "O=C(O)CC(O)C(=O)O", "note": "(stereo not shown) [calcium malate]", "values": [{"measurement": "solubility at 0.5 h", "value": 660, "unit": "mg/mL"}]}]}
